According to US20230295130A1, “COMPOUND USEFUL AS CDK7 KINASE INHIBITOR AND USE THEREOF” (TYK MEDICINES, INC., priority 2020, published 2023):

How the values were obtained:
[1] = test system: ovarian cancer cells A2780; experiment: Cell anti-proliferation experiment, MTT (Table 2); type: cell-based, human; settings: Homo sapiens, A2780, 72 h, incubate 3 days
Text: (§1) Human breast cancer cells MDA-MB 231, MDA-MB453, ovarian cancer cells OVCAR3 and A2780, colorectal cancer cells HCT-116 and WiDr, and lung cancer cell Calu-6 were purchased from BNCC. DMEM medium (Bio-Channel), DMSO (dimethyl sulfoxide), MTT (thiazole blue), 0.25% EDTA-Tripsin (pancreatin digestive juice), 1×PBS (phosphate buffer, PH7.2), 96-well plate (Corning), fetal bovine serum (FBS), 10,000 U/mL penicillin-G/streptomycin, high-speed freezing centrifuge (EPPENDORF 5810R), enzyme-linked immunosorbent assay (Tecan Spark).
(§2) 1. Cell Plating • A) Tumor cells were cultured to 80-90% density in DMEM (high sugar, containing 10% FBS and 100 U/mL penicillin-G/streptomycin) at 37° C., 5% CO2 and saturated humidity. • B) The culture medium was removed from the 10 cm culture dish. • C) Cells were washed with 10 ml 1×PBS. • D) 4 ml of 0.25% EDTA-Tripsin was added to an incubator to digest pancreatin for 5 minutes at 37° C. and 5% CO2, transferred to a 15 ml centrifuge tube, centrifuged for 5 minutes at 200 g, and supernatant was discarded to obtain cell precipitation. • E) The cell precipitation was resuspended with 4 ml DMEM medium, counted and adjusted to 50,000 cells/ml. • F) Cell suspension was added to a 96-well plate with a volume of 100 μL per well and cultured overnight in a 5% CO2 incubator at 37° C.
(§3) Compound Dilution • A) Preparing the tested compound gradient dilution solution: the tested compounds were prepared into 10 mM and 1 mM storage solution respectively. Firstly, 1 μl and 0.5 μl of 10 mM storage solution were dissolved in 1 ml of DMSO-free culture solution, respectively, to obtain diluted compounds with concentrations of 10 and 5 μM. Then, 1.5 μl of 1 mM storage solution was dissolved in 1.5 ml of DMSO-free culture solution to obtain a dilution compound with a concentration of 1 μM, and then diluted with a 3-fold continuous gradient with […] culture solution for a total of 7 concentrations. The concentrations of all 10 diluted compounds mentioned above were as follows: • 10 μM, 5 μM, 1 μM, 333.33 nM, 111.11 nM, 37.03 nM, 12.35 nM, 4.15 nM, 1.37 nM, 0.46 nM • B) After full mixing, 100 μL of culture compound solution was taken to replace the culture solution in the cell culture plate, with 4 duplicated wells at each concentration; • C) The cells were transferred to incubator to incubate for 3 days.
(§4) 3. MTT Detection • A) The cell culture plate was taken out and added with 5 mg/ml MTT 10 μL in the biosafety cabinet; • B) The cell culture plate was put back into the incubator and continued to incubate for 3 hours; • C) The cell culture plate was taken out to remove the culture solution, 100 μL isopropanol (containing 0.4 mM HCl, 0.1% NP-40) was added, shaking at room temperature for 30 minutes; • D) The absorbance value was measured at 570 nm on TECAN enzyme linked immunosorbent assay.

[2] = test system: ovarian cancer cells OVCAR3; experiment: Cell anti-proliferation experiment, MTT (Table 2); type: cell-based; settings: Homo sapiens, OVCAR-3, 72 h, incubate 3 days
Text: as §1, §2, §3, §4

[3] = target: CDK7/Cyclin H/MAT1 kinase (Homo sapiens (Human), UniProt P50613); experiment: Enzyme activity test, mobility shift assay (Table 1); type: biochemical; settings: 2 mM ATP; pre-incubated 0 and 60 minutes
[4] = target: CDK12 (aa686-1082)/Cyclin K (Homo sapiens (Human), UniProt Q9NYV4); experiment: as above; type: biochemical; settings: 2 mM ATP; read-out: CDK12 kinase IC50
Method in brief: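 Mobility shift kinase assay on CDK9/Cyclin T1 and CDK12 (aa686-1082)/Cyclin K. Ten-point 3-fold dilution series started from a 0.5 mM intermediate solution in DMSO, with compound–enzyme pre-incubation of 0 or 60 min, in duplicate. Staurosporine served as positive control.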

CDK9/Cyclin Tl = CDK9/Cyclin Tl (Homo sapiens (Human), UniProt P50750); experiment: as above; type: biochemical; settings: 2 mM ATP; read-out: CDK9 kinase IC50
Method in brief: (§5)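 Human CDK9/Cyclin T1 and CDK2/Cyclin E1 activity measured by mobility shift assay. Compounds tested as 10-point, 3-fold dilution series starting at 0.5 mM (diluted from 10 mM DMSO stock), in duplicate, with 0 min or 60 min compound–enzyme pre-incubation.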

CDK2/Cyclin El = CDK2/Cyclin El (Homo sapiens (Human), UniProt P24941); experiment: as above; type: biochemical; settings: 2 mM ATP; read-out: CDK2 kinase IC50
Method in brief: as §5

Chain of CDK12 (aa686-1082)/Cyclin K (Q9NYV4 686-1082): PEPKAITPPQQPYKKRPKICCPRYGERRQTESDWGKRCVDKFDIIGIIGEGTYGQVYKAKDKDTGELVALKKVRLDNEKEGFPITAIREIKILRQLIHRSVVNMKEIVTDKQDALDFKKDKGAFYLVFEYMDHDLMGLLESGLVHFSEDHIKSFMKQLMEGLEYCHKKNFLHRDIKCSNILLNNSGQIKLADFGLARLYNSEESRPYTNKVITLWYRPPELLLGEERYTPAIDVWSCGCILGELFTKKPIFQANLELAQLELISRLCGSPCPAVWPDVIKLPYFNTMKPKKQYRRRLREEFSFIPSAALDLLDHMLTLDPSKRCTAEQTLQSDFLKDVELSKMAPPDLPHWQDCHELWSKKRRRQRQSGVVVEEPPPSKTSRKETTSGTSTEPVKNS
Chain of CDK12 (aa686-1082)/Cyclin K (O75909 whole entry partner, the tested form may be a part): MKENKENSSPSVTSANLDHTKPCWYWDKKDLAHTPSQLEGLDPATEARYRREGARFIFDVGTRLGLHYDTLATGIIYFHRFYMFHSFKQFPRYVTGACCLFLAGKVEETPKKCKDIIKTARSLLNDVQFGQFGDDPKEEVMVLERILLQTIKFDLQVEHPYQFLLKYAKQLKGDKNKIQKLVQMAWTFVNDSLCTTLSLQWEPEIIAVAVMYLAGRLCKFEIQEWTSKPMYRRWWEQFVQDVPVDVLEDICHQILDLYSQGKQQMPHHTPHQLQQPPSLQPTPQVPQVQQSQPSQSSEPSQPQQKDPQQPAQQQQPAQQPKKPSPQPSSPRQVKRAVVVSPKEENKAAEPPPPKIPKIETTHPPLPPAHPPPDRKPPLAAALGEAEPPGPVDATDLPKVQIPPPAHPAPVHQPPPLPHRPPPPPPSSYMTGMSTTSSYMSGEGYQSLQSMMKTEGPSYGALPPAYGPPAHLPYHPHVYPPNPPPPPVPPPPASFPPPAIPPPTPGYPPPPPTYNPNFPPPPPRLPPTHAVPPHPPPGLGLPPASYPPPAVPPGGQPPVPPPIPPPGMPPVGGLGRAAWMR
Chain of CDK7/Cyclin H/MAT1 kinase (P50613 whole entry, the tested form may be a part): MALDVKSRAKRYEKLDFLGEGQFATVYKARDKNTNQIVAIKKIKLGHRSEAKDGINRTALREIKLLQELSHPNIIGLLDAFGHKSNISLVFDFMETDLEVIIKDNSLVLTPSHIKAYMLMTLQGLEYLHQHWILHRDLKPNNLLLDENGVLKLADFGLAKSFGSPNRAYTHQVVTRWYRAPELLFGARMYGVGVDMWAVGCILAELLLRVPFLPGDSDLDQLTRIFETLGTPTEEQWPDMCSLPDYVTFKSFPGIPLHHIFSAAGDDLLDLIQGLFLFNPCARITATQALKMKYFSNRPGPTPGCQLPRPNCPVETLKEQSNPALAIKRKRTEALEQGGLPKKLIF
Chain of CDK7/Cyclin H/MAT1 kinase (P51946 whole entry partner, the tested form may be a part): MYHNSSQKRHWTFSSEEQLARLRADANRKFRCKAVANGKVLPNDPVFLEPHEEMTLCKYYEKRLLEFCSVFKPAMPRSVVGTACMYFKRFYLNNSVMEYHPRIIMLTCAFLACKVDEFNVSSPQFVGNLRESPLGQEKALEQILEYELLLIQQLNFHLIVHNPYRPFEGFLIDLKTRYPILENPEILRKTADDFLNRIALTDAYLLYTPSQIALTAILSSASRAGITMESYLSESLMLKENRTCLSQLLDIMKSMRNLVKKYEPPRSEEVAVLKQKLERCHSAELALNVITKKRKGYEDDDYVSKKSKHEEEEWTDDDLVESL
Chain of CDK7/Cyclin H/MAT1 kinase (P51948 whole entry partner, the tested form may be a part): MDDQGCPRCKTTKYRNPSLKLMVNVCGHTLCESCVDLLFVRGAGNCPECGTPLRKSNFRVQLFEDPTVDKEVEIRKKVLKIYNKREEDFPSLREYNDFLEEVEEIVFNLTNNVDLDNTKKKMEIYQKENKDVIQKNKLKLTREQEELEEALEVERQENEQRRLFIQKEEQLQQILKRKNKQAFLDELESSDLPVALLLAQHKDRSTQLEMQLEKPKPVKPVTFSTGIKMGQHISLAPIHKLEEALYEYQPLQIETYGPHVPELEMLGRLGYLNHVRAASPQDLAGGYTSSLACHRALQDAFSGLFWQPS
Chain of CDK9/Cyclin Tl (P50750 whole entry): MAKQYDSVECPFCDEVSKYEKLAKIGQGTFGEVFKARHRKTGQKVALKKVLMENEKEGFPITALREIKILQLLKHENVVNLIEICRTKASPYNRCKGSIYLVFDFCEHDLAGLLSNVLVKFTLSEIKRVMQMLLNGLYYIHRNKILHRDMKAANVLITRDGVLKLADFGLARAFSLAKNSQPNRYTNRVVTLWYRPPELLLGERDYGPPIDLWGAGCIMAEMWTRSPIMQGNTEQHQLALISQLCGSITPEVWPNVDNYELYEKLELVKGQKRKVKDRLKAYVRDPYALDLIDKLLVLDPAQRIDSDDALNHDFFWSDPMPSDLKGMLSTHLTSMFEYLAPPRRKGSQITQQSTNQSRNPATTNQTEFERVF
Chain of CDK9/Cyclin Tl (O60563 whole entry partner): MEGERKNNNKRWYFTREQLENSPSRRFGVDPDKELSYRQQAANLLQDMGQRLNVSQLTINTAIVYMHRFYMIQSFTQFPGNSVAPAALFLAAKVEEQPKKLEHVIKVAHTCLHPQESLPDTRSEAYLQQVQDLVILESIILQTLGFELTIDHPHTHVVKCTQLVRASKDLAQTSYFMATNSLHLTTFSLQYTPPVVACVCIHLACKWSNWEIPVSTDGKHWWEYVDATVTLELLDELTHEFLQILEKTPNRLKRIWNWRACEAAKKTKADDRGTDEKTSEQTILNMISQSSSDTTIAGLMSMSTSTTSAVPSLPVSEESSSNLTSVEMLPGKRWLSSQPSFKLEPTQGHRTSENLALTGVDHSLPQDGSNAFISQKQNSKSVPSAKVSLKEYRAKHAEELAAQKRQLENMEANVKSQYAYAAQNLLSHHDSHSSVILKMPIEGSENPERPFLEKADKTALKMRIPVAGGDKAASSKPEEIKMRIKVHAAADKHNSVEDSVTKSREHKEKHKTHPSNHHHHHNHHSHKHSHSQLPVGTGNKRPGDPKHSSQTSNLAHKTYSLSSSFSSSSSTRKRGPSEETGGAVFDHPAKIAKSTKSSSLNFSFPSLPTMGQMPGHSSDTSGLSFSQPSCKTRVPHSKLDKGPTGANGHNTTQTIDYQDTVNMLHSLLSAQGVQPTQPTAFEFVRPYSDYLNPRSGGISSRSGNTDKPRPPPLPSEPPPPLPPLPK

Row | SMILES | IC50 [1] [nM] | IC50 [2] [nM] | IC50 [3] [nM] | IC50 [4] [nM] | IC50 (CDK9/Cyclin Tl) [nM] | IC50 (CDK2/Cyclin El) [nM]
1 | COC(=O)Nc1ccc2c(-c3nc(N[C@H]4CCCNC4)ncc3C(F)(F)F)c[nH]c2c1C(C)=O [Example T-98] | 5.55 | 127 |  |  |  | 
2 | COC(=O)Nc1ccc2c(-c3nc(N[C@H]4CCC5(CC5)NC4)ncc3C(F)(F)F)c[nH]c2c1Br [Example T-142] | 5.05 | 120 | < 50 | > 500 | > 500 | > 500
3 | COC(=O)Nc1ccc2c(-c3nc(N[C@H]4CCC5(CC5)NC4)ncc3C(F)(F)F)c[nH]c2c1OCC(F)(F)F [Example T-150] | 13.5 | 161 | < 50 | > 500 | > 500 | > 500
4 | COC(=O)Nc1ccc2c(-c3nc(N[C@H]4CCC5(CC5)NC4)ncc3C(F)(F)F)c[nH]c2c1C(F)F [Example T-156] | 1.23 |  | < 50 | > 500 | > 500 | > 500
5 | COC(=O)N(C)c1ccc2c(-c3nc(N[C@H]4CCCNC4)ncc3C(F)(F)F)c[nH]c2c1C(F)(F)F [Example T-164] |  |  | < 50 | > 500 | > 500 | > 500
6 | COC(=O)N(C)c1ccc2c(-c3nc(N[C@H]4CCCNC4)ncc3C(F)(F)F)c[nH]c2c1OC(F)F [Example T-165] |  |  | < 50 | > 500 | > 500 | > 500
7 | COC(=O)Nc1ccc2c(-c3nc(N[C@H]4CCCN(C)C4)ncc3C(F)(F)F)c[nH]c2c1Cl [Example T-168] |  |  | < 50 | > 500 | > 500 | > 500
8 | COC(=O)Nc1ccc2c(-c3nc(N[C@H]4CCCN(C)C4)ncc3C(F)(F)F)c[nH]c2c1C(F)F [Example T-169] |  |  | < 50 | > 500 | > 500 | > 500

Now from value to compound:

Row | IC50 [1] [nM] | IC50 [2] [nM] | IC50 [3] [nM] | IC50 [4] [nM] | IC50 (CDK9/Cyclin Tl) [nM] | IC50 (CDK2/Cyclin El) [nM] | SMILES
9 | 1.54 | 53.4 | < 50 |  |  |  | COC(=O)Nc1ccc2c(-c3nc(N[C@H]4CCCNC4)ncc3C(F)(F)F)c[nH]c2c1C(C)(F)F [Example T-99]
10 | 0.54 |  | < 50 |  |  |  | COC(=O)Nc1ccc2c(-c3nc(N[C@H]4CCCNC4)ncc3C(F)(F)F)c[nH]c2c1OC(F)(F)F [Example T-122]
11 | 8.68 | 9.08 | < 50 | > 500 | > 500 | > 500 | COC(=O)Nc1ccc2c(-c3nc(N[C@H]4CCC5(CC5)NC4)ncc3C(F)(F)F)c[nH]c2c1C1CC1 [Example T-128]
12 | 4.52 | 100 | < 50 | > 500 | > 500 | > 500 | COC(=O)Nc1ccc2c(-c3nc(N[C@H]4CCC(C)(C)NC4)ncc3C(F)(F)F)c[nH]c2c1OC [Example T-132]
13 | 4.61 | 161 | < 50 | > 500 | > 500 | > 500 | COC(=O)Nc1ccc2c(-c3nc(N[C@H]4CCC5(CC5)NC4)ncc3C(F)(F)F)c[nH]c2c1C(C)=O [Example T-135]
